Key:
human skin = assay: Skin irritation test of active ingredient (patch method, CTFA guidelines); format: in vivo; details: for Test result (number of subject) (+) / Test result (number of subject) (−) / Test result (number of subject) (++) / Test result (number of subject) (±): 20 subjects, 24 hours patch; for Test result (number of subject) (+): apparent reddening; for Test result (number of subject) (−): no erythema or symptoms; for Test result (number of subject) (++): reddened and swollen; for Test result (number of subject) (±): slightly reddish; for Degree of irritation: Equation 1
Description: A total of 20 people (10 men and 10 women in their 20s and 30s) were tested for skin irritation using the patch method according to the guidelines of CTFA (The Cosmetic, Toiletry & Fragrance Association, Inc. Washington, D.C.).
A filter paper disk was placed in an 8 mm diameter, 10 panels of pin chamber.
After 24 hours, the pin chamber was removed, and skin conditions were visually observed. The degree and grade for skin irritation were calculated according to the following Equation 1, and the results are shown in Table 3 below.
[Criteria for Skin Irritation]
(−): No erythema or particularly no symptoms; (±): slightly reddish than the periphery; (+): Apparent reddening than periphery; (++): More reddened and swollen than periphery.
[Grade for Skin Irritation]
Degree of irritation 0-0.1: Grade I (unstimulated);
Degree of irritation 0.11-0.3: Grade II (weakly stimulated);
Degree of irritation 0.31-0.5: Grade III (moderately stimulated);
Degree of irritation 0.51 or more: Grade IV (strongly stimulated)

[1] = Formaldehyde removing ability test (GC); details: 2.0% formaldehyde solution, 3 molar equivalents, room temperature

| SMILES | Grade (human skin; content 0.1%) | Test result (number of subject) (+) (human skin; content 0.1%) | Test result (number of subject) (−) (human skin; content 0.1%) | Test result (number of subject) (++) (human skin; content 0.1%) | Test result (number of subject) (±) (human skin; content 0.1%) | Degree of irritation (human skin; content 0.1%) | Grade (human skin; content 0.5%) | Test result (number of subject) (+) (human skin; content 0.5%) | Test result (number of subject) (−) (human skin; content 0.5%) | Test result (number of subject) (++) (human skin; content 0.5%) | Test result (number of subject) (±) (human skin; content 0.5%) | Degree of irritation (human skin; content 0.5%) | Grade (human skin; content 1.0%) | Test result (number of subject) (+) (human skin; content 1.0%) | Test result (number of subject) (−) (human skin; content 1.0%) | Test result (number of subject) (++) (human skin; content 1.0%) | Test result (number of subject) (±) (human skin; content 1.0%) | Degree of irritation (human skin; content 1.0%) | Area (formaldehyde, GC) ([1]; 30 min) [mAU * min] | Area (formaldehyde, GC) ([1]; 180 min) [mAU * min] | further results |
| --- | --- | --- | --- | --- | --- | --- | --- | --- | --- | --- | --- | --- | --- | --- | --- | --- | --- | --- | --- | --- | --- |
| C1CNCCNCCNCCN1 [Cyclen, 1,4,7,10-tetraazacyclododecane] | I (Degree of irritation 0-0.1: Grade I (unstimulated)) | 0 | 20 | 0 | 0 | 0 | I (Degree of irritation 0-0.1: Grade I (unstimulated)) | 0 | 20 | 0 | 0 | 0 | II (Degree of irritation 0.11-0.3: Grade II (weakly stimulated)) | 1 | 18 | 0 | 1 | 0.15 | 0.181 | 0 | Area (formaldehyde, GC) ([1]; Initial): 0.305 mAU * min |
| O=C(O)CN(CCN(CCN(CC(=O)O)CC(=O)O)CC(=O)O)CCN(CC(=O)O)CC(=O)O [Embodiment 1, 3,6,9,12-tetrakis(carboxymethyl)-3,6,9,12-tetraazatetradecanedioic Acid] | I (Degree of irritation 0-0.1: Grade I (unstimulated)) | 0 | 20 | 0 | 0 | 0 | I (Degree of irritation 0-0.1: Grade I (unstimulated)) | 0 | 19 | 0 | 1 | 0.05 | II (Degree of irritation 0.11-0.3: Grade II (weakly stimulated)) | 0 | 16 | 0 | 4 | 0.20 | 0.170 | 0 | Area (formaldehyde, GC) ([1]; Initial): 0.305 mAU * min |
| O=C(O)c1ccc(N(CCN(CCN(c2ccc(C(=O)O)cc2)c2ccc(C(=O)O)cc2)c2ccc(C(=O)O)cc2)CCN(c2ccc(C(=O)O)cc2)c2ccc(C(=O)O)cc2)cc1 [Embodiment 2, 4,4′,4″,4′″-(((ethane-1,2-diylbis((4-carboxyphenyl)azanediyl))bis(ethane-2,1-diyl))bis(azanetriyl))tetrabenzoic Acid] | I (Degree of irritation 0-0.1: Grade I (unstimulated)) | 0 | 20 | 0 | 0 | 0 | I (Degree of irritation 0-0.1: Grade I (unstimulated)) | 0 | 20 | 0 | 0 | 0 | I (Degree of irritation 0-0.1: Grade I (unstimulated)) | 0 | 19 | 0 | 1 | 0.05 | 0.168 | 0 | Area (formaldehyde, GC) ([1]; Initial): 0.305 mAU * min |
| O=C(O)c1ccc(N(CCN(CCN(c2ccc(C(=O)O)o2)c2ccc(C(=O)O)o2)c2ccc(C(=O)O)o2)CCN(c2ccc(C(=O)O)o2)c2ccc(C(=O)O)o2)o1 [Embodiment 4, 5,5′,5″,5′″-(((ethane-1,2-diylbis((5-carboxyfuran-2-yl)azanediyl))bis(ethane-2,1-diyl))bis(azanetriyl))tetrakis(furan-2-carboxylic Acid)] | I (Degree of irritation 0-0.1: Grade I (unstimulated)) | 0 | 20 | 0 | 0 | 0 | I (Degree of irritation 0-0.1: Grade I (unstimulated)) | 0 | 20 | 0 | 0 | 0 | I (Degree of irritation 0-0.1: Grade I (unstimulated)) | 0 | 19 | 0 | 1 | 0.05 | 0.173 | 0 | Area (formaldehyde, GC) ([1]; Initial): 0.305 mAU * min |
| O=C(O)CN1CCN(CC(=O)O)CCN(CC(=O)O)CCN(CC(=O)O)CC1 [Embodiment 5, 2,2′,2″,2′″-(1,4,7,10-tetraazacyclododecane-1,4,7,10-tetrayl)tetraacetic Acid] | I (Degree of irritation 0-0.1: Grade I (unstimulated)) | 0 | 20 | 0 | 0 | 0 | I (Degree of irritation 0-0.1: Grade I (unstimulated)) | 0 | 20 | 0 | 0 | 0 | I (Degree of irritation 0-0.1: Grade I (unstimulated)) | 0 | 19 | 0 | 1 | 0.05 | 0.179 | 0 | Area (formaldehyde, GC) ([1]; Initial): 0.305 mAU * min |
| O=C(O)c1ccc(N2CCN(c3ccc(C(=O)O)cc3)CCN(c3ccc(C(=O)O)cc3)CCN(c3ccc(C(=O)O)cc3)CC2)cc1 [Embodiment 6, 4,4′,4″,4′″-(1,4,7,10-tetraazacyclododecane-1,4,7,10-tetrayl)tetrabenzoic Acid] | I (Degree of irritation 0-0.1: Grade I (unstimulated)) | 0 | 20 | 0 | 0 | 0 | I (Degree of irritation 0-0.1: Grade I (unstimulated)) | 0 | 20 | 0 | 0 | 0 | I (Degree of irritation 0-0.1: Grade I (unstimulated)) | 0 | 19 | 0 | 1 | 0.05 | 0.183 | 0 | Area (formaldehyde, GC) ([1]; Initial): 0.305 mAU * min |
